Values belong to the molecule of their own block, whether it stands above or below them.
Legend:
[1] = biological target: T1, SBD(∆CDE)-y of human Hsp70 (Homo sapiens, UniProt P0DMV8, L542Y); experiment: Binding kinetics estimated from simulation of NMR exchange
T1 construct: We solved the solution structure of SBD(∆CDE) comprising residues 382–564; His6 (N, cleaved yes); made in house; host or cells: E. coli BL21(DE3)
Description: This gives a kon = 2.3 × 10^4 M^−1 s^−1, which is consistent with the kinetics for the lidless SBD of DnaK in binding to its target peptide (kon = 2 × 10^4 M^−1 s^−1 and koff = 12.5 s^−1).
The NMR titration experiments were performed by acquiring a series of 2D ^1H-^15N HSQC spectra of the protein in 50 mM potassium phosphate (pH 7.0), 50 mM KCl and 10 mM DTT at 310 K (37 °C). The NR-peptide (0.075 mM, 0.15 mM, 0.30 mM, 0.60 mM, 1.2 mM, 3.0 mM and 6.0 mM) was titrated into a sample containing 0.3 mM ^15N labeled SBD(∆CDE)-y. Data processing and analysis were performed with NMRPipe and KUJIRA [41], respectively. The dissociation constant, KD, was estimated by fitting Equation (1) to the bound fraction of SBD(∆CDE)-y, fbound: (1) fbound([L]total)=1−I([L]total)/I0=([P]total+[L]total+KD)−([P]total+[L]total+KD)^2−4[P]total[L]total/2[P]total where [L]total and [P]total are the total concentrations of NR-peptide and SBD(∆CDE)-y, respectively, and I and I0 are the signal intensities with and without NR-peptide. Each signal intensity was measured by a similar procedure described in Section 4.3. […] Uncertainties in the dissociation constant was estimated by Monte Carlo simulations on the basis of the uncertainty for each signal intensity evaluated using the root-mean-square deviation value on a spectral region with no signals, which was obtained by the NMRPipe built-in module.

[2] = test system: SBD in Hsp70 with covalently modified E444; details: PDB ID: 4WV7; ref [29]; cited from earlier work
Text: E444 in Hsp70 is accessible by NBD in the apo-form SBD(∆CDE)-y, whereas it is covered by the Lα,β loop and therefore this interaction is hindered in the substrate-bound form (Figure 7a,b). This is consistent with the observation for Q442 in DnaK, as described above.

[3] = biological target: T2, SBD(∆CDE)-y, substrate-binding domain of human Hsp70 (HSPA1A) lacking αC, αD and αE, with the L542Y mutation (human, UniProt P0DMV8 382-564, L542Y); experiment: NMR titration; 2D 1H-15N HSQC; NR-peptide (0.075-6.0 mM) titrated into 0.3 mM 15N-labelled SBD(∆CDE)-y; 50 mM potassium phosphate pH 7.0, 50 mM KCl, 10 mM DTT, 37 °C; slow exchange; global fit of signal intensities of 28 residues; details: both partners purified
T2 construct: Cloned in pET16b (NdeI/XhoI); 15N- or 13C/15N-labelled for NMR, unlabelled (LB medium) for ITC; also called mutant SBD; apo-form SBD; source: E. coli BL21(DE3), purified (HisTrap FF, Factor Xa cleavage, HiTrap Q FF); not shown: His6, N-terminal, cleaved
T2 sequence (P0DMV8 382-564 L542Y): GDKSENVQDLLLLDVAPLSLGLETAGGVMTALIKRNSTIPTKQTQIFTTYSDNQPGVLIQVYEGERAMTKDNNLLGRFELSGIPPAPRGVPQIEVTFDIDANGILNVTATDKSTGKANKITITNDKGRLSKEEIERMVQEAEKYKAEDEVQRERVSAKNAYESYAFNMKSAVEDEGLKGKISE

[4] = biological target: T2, SBD(∆CDE)-y, substrate-binding domain …; experiment: ITC; 1.5 μL injections of 5 mM NR-peptide into 200 μL of 0.1 mM SBD(∆CDE)-y; single-site fit with the stoichiometry fixed as n = 1; triplicate; details: both partners purified
[5] = biological target: T3, SBD(∆CDE) (S537C/L542Y) mutant, labelled at residue 537 with MTSL or its diamagnetic analog (human, UniProt P0DMV8 382-564, S537C | L542Y, MTSL nitroxide radical, or the diamagnetic MTSL analog, on C537); experiment: NMR paramagnetic relaxation enhancement; 2D 1H-15N HSQC of 0.5 mM spin-labelled SBD(∆CDE) (S537C/L542Y) with/without 5.0 mM NR-peptide; 50 mM potassium phosphate pH 7.0, 50 mM KCl, 37 °C; details: both partners purified
T3 construct: 15N-labelled for NMR; PDB 5XIR is the parent SBD(∆CDE)-y without S537C; also called SBD(∆CDE)-y harboring a S537C mutation; SBD(∆CDE)-y with spin labeling at residue 537; source: E. coli BL21(DE3), purified (as in Section 4.1), then labelled with MTSL; not shown: His6, N-terminal, cleaved
T3 sequence (P0DMV8 382-564 S537C/L542Y): as the sequence (P0DMV8 382-564 L542Y) above, with S156C counted along it

T1 sequence (P0DMV8 382-564 L542Y): as the sequence (P0DMV8 382-564 L542Y) above

kon ([1]; from koff 30 s^−1 and KD = 1.3 mM): 23000 M⁻¹ s⁻¹ | koff ([1]; simulation using average R2 rate 21 s^−1 and KD = 1.3 mM, SBD(∆CDE)-y 0.3 mM, peptide 3.0 mM, read-out: maximum koff): ≤ 30 s⁻¹
Molecule: CC(C)C[C@H](NC(=O)[C@H](CC(C)C)NC(=O)[C@H](CCCNC(=N)N)NC(=O)[C@@H](N)CC(N)=O)C(=O)N[C@@H](CC(C)C)C(=O)N[C@H](C(=O)NCC(=O)O)[C@@H](C)O [NR-peptide]

Molecule: C=CC1=CC[C@H]2[C@@H](C[C@@H](O)[C@@]3(O)[C@@]4(C)C(=O)O[C@H]4CC[C@]23C)[C@H]1C [novolactone]
effect of covalent E444 modification on interdomain interactions [2]: sterically blocks the interdomain interactions

Kd [3]: 1.3 mM | Kd [4]: 1.5 mM | binding result [5]: binds
B1: NR-peptide (peptide)
peptide: NRLLLTG
notes: Model client peptide of Hsp70; also called NRLLLTG; client-peptide

— article PMC6017645, “Substrate Binding Switches the Conformation at the Lynchpin Site in the Substrate-Binding Domain of Human Hsp70 to Enable Allosteric Interdomain Communication” (Molecules : A Journal of Synthetic Chemistry and Natural …, 2018)
